From US9695178B2, “6-(2-pyridyl)-7,8-dihydro-5H-pyrido[4,3-D]pyrimidine analogs as hedgehog pathway signaling inhibitors and therapeutic applications thereof” (Suzhou Yunxuan Yiyao Keji Youxian Gongsi, priority 2013, dated 2017)

target: Smo (Homo sapiens, UniProt Q99835); assay: Bodipy-Cyclopamine Binding Assay (confirmation assay), Hek293-SMO cells; conditions: not given
Sequence (Q99835 28-787): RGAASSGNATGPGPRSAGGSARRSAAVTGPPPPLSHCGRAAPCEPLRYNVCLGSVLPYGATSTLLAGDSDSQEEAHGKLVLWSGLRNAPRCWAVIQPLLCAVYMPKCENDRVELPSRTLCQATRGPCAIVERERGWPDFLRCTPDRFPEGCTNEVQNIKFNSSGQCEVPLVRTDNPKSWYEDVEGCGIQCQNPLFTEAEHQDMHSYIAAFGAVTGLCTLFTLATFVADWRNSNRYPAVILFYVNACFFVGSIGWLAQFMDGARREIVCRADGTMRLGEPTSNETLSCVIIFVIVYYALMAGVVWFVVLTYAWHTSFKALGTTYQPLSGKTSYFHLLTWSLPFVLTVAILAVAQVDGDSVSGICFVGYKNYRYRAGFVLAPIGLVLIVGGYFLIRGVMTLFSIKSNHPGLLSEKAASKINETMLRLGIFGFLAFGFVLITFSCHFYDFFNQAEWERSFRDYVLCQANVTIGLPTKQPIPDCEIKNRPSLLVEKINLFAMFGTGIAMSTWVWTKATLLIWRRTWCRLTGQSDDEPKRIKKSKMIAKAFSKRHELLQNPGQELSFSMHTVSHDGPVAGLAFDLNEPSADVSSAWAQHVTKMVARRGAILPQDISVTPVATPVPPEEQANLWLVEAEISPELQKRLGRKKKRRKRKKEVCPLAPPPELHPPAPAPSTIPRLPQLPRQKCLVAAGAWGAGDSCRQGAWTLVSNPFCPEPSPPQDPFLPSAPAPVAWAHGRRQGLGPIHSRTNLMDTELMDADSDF

Going from `CCOc1nc2c(s1)CN(c1cc(-c3ncc(C)cc3C)c(Cl)cn1)CC2` [Compound A46, 5-(5′-chloro-3,5-dimethyl-2,4′-bipyridin-2′-yl)-2-ethoxy-4,5,6,7-tetrahydro-thiazolo-[5,4-c]pyridine] to `Cc1cnc(-c2cc(N3CCc4nc(N)sc4C3)ncc2Cl)c(C)c1` [Compound A-22, 5-(5′-chloro-3,5-dimethyl-2,4′-bipyridin-2′-yl)-4,5,6,7-tetrahydro-thiazolo-[5,4-c]pyridin-2-amine], the IC50 rises from 158 nM to 768 nM (4.9-fold).

Compared with `Cc1cnc(-c2cc(N3CCc4nc(NC5CC5)ncc4C3=O)ncc2Cl)c(C)c1` [Compound A99, 6-(5′-chloro-3,5-dimethyl-2,4′-bipyridin-2′-yl)-2-(cyclopropyl-amino)-7,8-dihydro-pyrido[4,3-d]pyrimidin-5(6H)-one], `Cc1cnc(-c2cc(N3CCc4nc(NC(=O)C5CC5)sc4C3)ncc2Cl)c(C)c1` [Compound A-26, N-(5-(5′-chloro-3,5-dimethyl-2,4′-bipyridin-2′-yl)-4,5,6,7-tetrahydro-thiazolo-[5,4-c]pyridin-2-yl)cyclo-propane carboxamide] is 2.9-fold higher in IC50: 24.8 nM for the first, 71 nM for the second.

Going from `CCOC(=O)c1cn2c(n1)CN(c1cc(-c3ncc(C)cc3C)c(Cl)cn1)CC2` [Compound A-1, ethyl 7-(5′-chloro-3,5-dimethyl-2,4′-bipyridin-2′-yl)-5,6,7,8-tetrahydro-imidazo-[1,2-a]pyrazine-2-carboxylate] to `Cc1cnc(-c2cc(N3CCn4cc(C(=O)OC(C)C)nc4C3)ncc2Cl)c(C)c1` [Compound A-15, isopropyl 7-(5′-chloro-3,5-dimethyl-2,4′-bipyridin-2′-yl)-5,6,7,8-tetrahydro-imidazo-[1,2-a]pyrazine-2-carboxylate], the IC50 rises from 321 nM to 589 nM (1.8-fold).

Compared with `Cc1cnc(-c2cc(N3CCn4cc(C(=O)O)nc4C3)ncc2Cl)c(C)c1` [Compound A-2, 7-(5′-chloro-3,5-dimethyl-2,4′-bipyridin-2′-yl)-5,6,7,8-tetrahydro-imidazo-[1,2-a]pyrazine-2-carboxylic acid], `CNC(=O)c1cn2c(n1)CN(c1cc(-c3ncc(C)cc3C)c(Cl)cn1)CC2` [Compound A-6, 7-(5′-chloro-3,5-dimethyl-2,4′-bipyridin-2′-yl)-N-methyl-5,6,7,8-tetrahydro-imidazo-[1,2-a]pyrazine-2-carboxamide] is lower in IC50: > 10000 nM for the first, 1260 nM for the second. The second is the more potent here.

Compared with `Cc1cnc(-c2cc(N3CCn4cc(C(=O)N5CCCC5)nc4C3)ncc2Cl)c(C)c1` [Compound A-3, (7-(5′-chloro-3,5-dimethyl-2,4′-bipyridin-2′-yl)-5,6,7,8-tetrahydroimidazo[1,2-a]pyrazin-2-yl)(pyrrolidin-1-yl)methanone], `Cc1cnc(-c2cc(N3CCn4cc(C(=O)N5CCOCC5)nc4C3)ncc2Cl)c(C)c1` [Compound A-5, (7-(5′-chloro-3,5-dimethyl-2,4′-bipyridin-2′-yl)-5,6,7,8-tetrahydro-imidazo-[1,2-a]pyrazin-2-yl)(morpholino) methanone] is 4.7-fold higher in IC50: 244 nM for the first, 1150 nM for the second. The first is the more potent here.

Going from `Cc1cnc(-c2cc(N3CCn4cc(C(=O)N5CCC(O)CC5)nc4C3)ncc2Cl)c(C)c1` [Compound A-4, (7-(5′-chloro-3,5-dimethyl-2,4′-bipyridin-2′-yl)-5,6,7,8-tetrahydro-imidazo-[1,2-a]pyrazin-2-yl)(4-hydroxy-piperidin-1-yl)methanone] to `Cc1cnc(-c2cc(N3CCn4cc(C(=O)OC5CCCC5)nc4C3)ncc2Cl)c(C)c1` [Compound A-17, cyclopentyl 7-(5′-chloro-3,5-dimethyl-2,4′-bipyridin-2′-yl)-5,6,7,8-tetrahydro-imidazo-[1,2-a]pyrazine-2-carboxylate], the IC50 rises from 639 nM to > 1000 nM.

Compared with `Cc1cnc(-c2cc(N3CCn4cc(C(=O)N5CC(C)NC(C)C5)nc4C3)ncc2Cl)c(C)c1` (stereo not drawn) [Compound A-7, (7-(5′-chloro-3,5-dimethyl-2,4′-bipyridin-2′-yl)-5,6,7,8-tetrahydro-imidazo-[1,2-a]pyrazin-2-yl)(3,5-dimethyl-piperazin-1-yl)methanone], `Cc1cnc(-c2cc(N3CCn4cc(C(=O)N(C)CCO)nc4C3)ncc2Cl)c(C)c1` [Compound A-8, 7-(5′-chloro-3,5-dimethyl-2,4′-bipyridin-2′-yl)-N-(2-hydroxyethyl)-N-methyl-5,6,7,8-tetrahydro-imidazo-[1,2-a]pyrazine-2-carboxamide] is 3.1-fold higher in IC50: 656 nM for the first, 2010 nM for the second.

First: Cc1cnc(-c2cc(N3CCn4cc(CN5CCOCC5)nc4C3)ncc2Cl)c(C)c1 [Compound A-11, 4-((7-(5′-chloro-3,5-dimethyl-2,4′-bipyridin-2′-yl)-5,6,7,8-tetrahydroimidazo[1,2-a]pyrazin-2-yl)methyl)morpholine]
Second: Cc1cnc(-c2cc(N3CCc4nc(N5CCOCC5)sc4C3)ncc2Cl)c(C)c1 [Compound A-29, 4-(5-(5′-chloro-3,5-dimethyl-[2,4′-bipyridin]-2′-yl)-4,5,6,7-tetrahydrothiazolo[5,4-c]pyridin-2-yl)morpholine]
The IC50 of the first is 4-fold higher: 676 nM for the first, 169 nM for the second.

`Cc1cnc(-c2cc(N3CCn4cc(NC(=O)C(F)(F)F)nc4C3)ncc2Cl)c(C)c1` [Compound A-12, N-(7-(5′-chloro-3,5-dimethyl-2,4′-bipyridin-2′-yl)-5,6,7,8-tetrahydro-imidazo-[1,2-a]pyrazin-2-yl)-2,2,2-trifluoro-acetamide] and `CCC(=O)Nc1cn2c(n1)CN(c1cc(-c3ncc(C)cc3C)c(Cl)cn1)CC2` [Compound A-13, N-(7-(5′-chloro-3,5-dimethyl-2,4′-bipyridin-2′-yl)-5,6,7,8-tetrahydroimidazo[1,2-a]pyrazin-2-yl)propionamide] cannot be ordered by IC50: > 1000 nM for the first, > 1000 nM for the second.

Going from `COCC(=O)Nc1cn2c(n1)CN(c1cc(-c3ncc(C)cc3C)c(Cl)cn1)CC2` [Compound A-14, N-(7-(5′-chloro-3,5-dimethyl-2,4′-bipyridin-2′-yl)-5,6,7,8-tetrahydro-imidazo-[1,2-a]pyrazin-2-yl)-2-methoxy-acetamide] to `COCC(=O)Nc1nc2c(s1)CN(c1cc(-c3ncc(C)cc3C)c(Cl)cn1)CC2` [Compound A-27, N-(5-(5′-chloro-3,5-dimethyl-2,4′-bipyridin-2′-yl)-4,5,6,7-tetrahydro-thiazolo-[5,4-c]pyridin-2-yl)-2-methoxy-acetamide], the IC50 falls from > 1000 nM to 423 nM. The second is the more potent here.

Going from `Cc1cnc(-c2cc(N3CCn4cc(C(=O)Oc5ccccc5)nc4C3)ncc2Cl)c(C)c1` [Compound A-18, phenyl 7-(5′-chloro-3,5-dimethyl-2,4′-bipyridin-2′-yl)-5,6,7,8-tetrahydro-imidazo-[1,2-a]pyrazine-2-carboxylate] to `Cc1cnc(-c2cc(N3CCn4cc(C(=O)Nc5ccccc5F)nc4C3)ncc2Cl)c(C)c1` [Compound A-20, 7-(5′-chloro-3,5-dimethyl-2,4′-bipyridin-2′-yl)-N-(2-fluorophenyl)-5,6,7,8-tetrahydro-imidazo-[1,2-a]pyrazine-2-carboxamide], the IC50 falls from > 1000 nM to 507 nM.

Going from `Cc1cnc(-c2cc(N3CCn4cc(C(=O)Nc5ccc(F)cc5)nc4C3)ncc2Cl)c(C)c1` [Compound A-21, 7-(5′-chloro-3,5-dimethyl-2,4′-bipyridin-2′-yl)-N-(4-fluorophenyl)-5,6,7,8-tetrahydro-imidazo-[1,2-a]pyrazine-2-carboxamide] to `CC(=O)Nc1nc2c(s1)CN(c1cc(-c3ncc(C)cc3C)c(Cl)cn1)CC2` [Compound A-23, N-(5-(5′-chloro-3,5-dimethyl-[2,4′-bipyridin]-2′-yl)-4,5,6,7-tetrahydrothiazolo[5,4-c]pyridin-2-yl)acetamide], the IC50 falls from > 1000 nM to 363 nM.

Compared with `Cc1cnc(-c2cc(N3CCc4nc(NC(=O)C(C)C)sc4C3)ncc2Cl)c(C)c1` [Compound A-24, N-(5-(5′-chloro-3,5-dimethyl-2,4′-bipyridin-2′-yl)-4,5,6,7-tetrahydro-thiazolo-[5,4-c]pyridin-2-yl)isobutyr-amide], `CCC(=O)Nc1nc2c(s1)CN(c1cc(-c3ncc(C)cc3C)c(Cl)cn1)CC2` [Compound A-25, N-(5-(5′-chloro-3,5-dimethyl-2,4′-bipyridin-2′-yl)-4,5,6,7-tetrahydro-thiazolo-[5,4-c]pyridin-2-yl)propion-amide] is 1.7-fold higher in IC50: 58.3 nM for the first, 101 nM for the second. The first is the more potent here.

First: Cc1cnc(-c2cc(N3CCc4nc(NC(=O)C(C)(C)C)sc4C3)ncc2Cl)c(C)c1 [Compound A-28, N-(5-(5′-chloro-3,5-dimethyl-2,4′-bipyridin-2′-yl)-4,5,6,7-tetrahydro-thiazolo-[5,4-c]pyridin-2-yl)pivalamide]
Second: Cc1cnc(-c2cc(N3CCc4nc(NCC5CC5)sc4C3)ncc2Cl)c(C)c1 [Compound A-31, 5-(5′-chloro-3,5-dimethyl-2,4′-bipyridin-2′-yl)-N-(cyclopro-pylmeth-yl)-4,5,6,7-tetrahydro-thiazolo-[5,4-c]pyridin-2-amine]
The IC50 of the first is 2.3-fold higher: 127 nM for the first, 54.8 nM for the second.

For `Cc1cnc(-c2cc(N3CCc4nc(N5CC(C)NC(C)C5)sc4C3)ncc2Cl)c(C)c1` (stereo not drawn) [Compound A-30, 5-(5′-chloro-3,5-dimethyl-2,4′-bipyridin-2′-yl)-2-(3,5-dimethyl-piperazin-1-yl)-4,5,6,7-tetrahydro-thiazolo-[5,4-c]pyridine], the IC50 was 69.7 nM.

same assay, conditions: Smo IC50 (nM), confirmation assay; competition with 100 nM bodipy-cyclopamine, Hek293-SMO cells

Going from `Cc1cnc(-c2cc(N3CCn4cc(C(=O)OCC5CC5)nc4C3)ncc2Cl)c(C)c1` [Compound A16, cyclopro-pylmeth-yl 7-(5′-chloro-3,5-dimethyl-2,4′-bipyridin-2′-yl)-5,6,7,8-tetrahydro-imidazo-[1,2-a]pyrazine-2-carboxylate] to `CCNC(=O)c1cn2c(n1)CN(c1cc(-c3ncc(C)cc3C)c(Cl)cn1)CC2` [Compound A-9, 7-(5′-chloro-3,5-dimethyl-2,4′-bipyridin-2′-yl)-N-ethyl-5,6,7,8-tetrahydro-imidazo-[1,2-a]pyrazine-2-carboxamide], the IC50 rises from 442 nM to > 1000 nM. The first is the more potent here.

First: Cc1cnc(-c2cc(N3CCn4cc(CO)nc4C3)ncc2Cl)c(C)c1 [Compound A-10, (7-(5′-chloro-3,5-dimethyl-2,4′-bipyridin-2′-yl)-5,6,7,8-tetrahydro-imidazo-[1,2-a]pyrazin-2-yl)methanol]
Second: Cc1cnc(-c2cc(N3CCn4cc(C(=O)Nc5ccccc5)nc4C3)ncc2Cl)c(C)c1 [Compound A-19, 7-(5′-chloro-3,5-dimethyl-2,4′-bipyridin-2′-yl)-N-phenyl-5,6,7,8-tetrahydro-imidazo-[1,2-a]pyrazine-2-carboxamide]
The IC50 of the first is higher: > 1000 nM for the first, 311 nM for the second.
